Values after ≈ are worked out from the molar mass of the structure shown.
Assays:
[1] = system: quisqualic acid stimulated spreading depression in chicken retina; test: Spreading depression (Test 2); assay type: cell-based; details: Gallus gallus; concentration producing 50% maximal inhibition of quisqualic acid stimulated spreading depression; chick retina, quisqualate 1 µg/ml, 26°C
Description: (§1) The pharmacological properties of the compounds of the present invention can be illustrated by determining their capability for displacing radioactively labelled 2-amino3-hydroxy-5-methyl-4-isoxazolepropionic acid (AMPA) from the AMPA type receptors.
The antagonism is measured by determining the IC₅₀ value which represents the concentration which produces a 50% maximal inhibition of quisqualic acid stimulated spreading depression in chicken retina.
Spreading depression (Test 2)
Chicks (3-10 days old) were decapitated, the eyes enucleated and sectioned along the equatorial plane. After removal of the anterior chamber and the vitreous body, the posterior chamber of each eye was placed in a small petri dish containing a physiological saline solution (P.S.S.) of the following composition (mM) NaCl (100), KCl (6.0), CaCl₂ (1.0), MgS0₄ (1.0), NaHCO₃ (30), NaH₂PO₄ (1.0), glucose (20).
The solution was saturated with 100% O₂ and maintained at 26°C.
The eyes are initially incubated in normal P.S.S. for 15-30 min. and then transferred to P.S.S. containing KCl (20 mM), NMDLA (30 µg/ml), quisqualate (1 µg/ml), kainate (1 µg/ml), or glycin (200 µg/ml). In these "stimulating solutions" S.D.s start spontaneously usually from the edge of the retina, and can be easily observed by eye. The time taken for an S.D. to start in each eye is measured.
After a further 15 minutes of incubation in normal P.S.S. the eyes are transferred to normal P.S.S. containing the test compound and incubated for 15 minutes. Thereafter the eyes are transferred to a "stimulating solution" containing the same concentration of the test compound. The time taken for an S.D. to start in each eye is again measured. The eyes are then placed back in normal P.S.S. and after 15 minutes the time taken for S.D. to start is again measured, in order to assess the degree of recovery from any drug effects.
An increase in the time taken for S.D. to start of 30 seconds more than the control time is considered 100% inhibition of S.D. The drug effects therefore are expressed as the percentage maximum response obtained for a given dose. The test value can be quoted therefore as the concentration (µg/ml) of test substance which produces a 50% maximal inhibition (IC₅₀).

AMPA type receptors = test: ³H-AMPA binding (Test 1); details: displacement of 50% of specific binding of ³H-AMPA (5 nM); rat cerebral cortical membrane homogenate, 0°C, 30 min
Description: as §1
The displacement activity of the compounds may be shown by determining the IC₅₀ value which represents the concentration (µg/ml) which causes a displacement of 50% of the specific binding of ³H-AMPA.
500 µl of thawed rat cerebral cortical membrane homogenate in Tris-HCl (30 mM), CaCl₂ (2.5 mM) and KSCN (1OO mM) pH 7.1 were incubated at 0°C for 30 min. with 25 µl ³H-AMPA (5 nM final concentration) and the test compound and buffer. Nonspecific binding was determined by incubation with L-glutamic acid (600 µM final concentration). The binding reaction was terminated by adding 5 ml of ice-cold buffer followed by filtration through Whatman GF/C glass fibre filters and 2x5 ml wash with ice-cold buffer. Bound radioactivity was measured by scintillation counting. IC₅₀ was determined by Hill analysis of at least four concentrations of test compound.

| IC50 [1] | Test 1 IC50 (AMPA type receptors) | SMILES |
| --- | --- | --- |
| 1.3 µg/mL (≈ 4 µM) | 0.55 µg/mL | O=c1[nH]c2cc([N+](=O)[O-])c3c(C(F)(F)F)cccc3c2[nH]c1=O [Example 8, 6-Nitro-7-trifluoromethylbenzo[f]quinoxaline-2,3-(1H,4H)-dione] |
| 0.54 µg/mL (≈ 1.71 µM) | 0.17 µg/mL | N#Cc1cc2[nH]c(=O)c(=O)[nH]c2c2ccc(S(N)(=O)=O)cc12 [Example 11, 6-Cyano-8-sulfamoylbenzo[f]quinoxaline-2,3(1H,4H)-dione] |
| 0.41 µg/mL (≈ 1.37 µM) | 0.07 µg/mL | NC(=O)c1ccc2c(c1)c([N+](=O)[O-])cc1[nH]c(=O)c(=O)[nH]c12 [Example 14, 8-Carbamoyl-6-nitrobenzo[f]quinoxaline-2,3(1H,4H)-dione] |
| 1 µg/mL (≈ 2.54 µM) | 0.16 µg/mL | NC(=O)CNS(=O)(=O)c1ccc2c(c1)c([N+](=O)[O-])cc1[nH]c(=O)c(=O)[nH]c12 [Example 21, 8-Carbamoylmethylsulfamoyl-6-nitrobenzo[f]quinoxaline-2,3(1H,4H)-dione] |

Source: EP0511152A2, “Quinoxaline compounds, their preparation and use” (NOVO NORDISK A/S, priority 1991, dated 1992)
